In patent US6974702B2, “Fourier transform mass spectrometry of complex biological samples” (Esperion Therapeutics, Inc., priority 2000, dated 2005):

Key:
[1] = experimental rats; see U.S. application Ser. No. 09/540,738; cited from earlier work
[2] = HICS-FTMS of plasma from rats treated by oral gavage; assay type: in vivo; conditions: rat plasma, 100 mg/kg daily by oral gavage for one week, versus untreated rats
Experimental: Three rats were treated daily with 100 mg/kg of 6-(6-hydroxy-5,5-dimethylhexyloxy)-2,2-dimethyl-hexan-1-ol by oral gavage, over the course of one week. 6-(6-hydroxy-5,5-dimethylhexyloxy)-2,2-dimethyl-hexon-1-ol increases HDL-cholesterol and improves glucose utilization in experimental rats (see U.S. application Ser. No. 09/540,738 , filed Mar. 31, 2000). At the end of the week, blood was drawn from each of the three rats, as well as from three control (untreated) rats. The blood was allowed to coagulate, and the plasma was prepared for FTMS by adding a water and methanol solution (49:49:2, water:methanol:acetic acid v:v:v) each of the plasma preparations. The mixture was chilled to precipitate the proteins to the bottom of the tube. Each tube was centrifuged, the supernatant decanted and the sample desalted by adding approximately 100 mg of DOWEX ion exchange resin to each vial and incubating the sample with the resin for approximately 10 minutes. The sample was then centrifuged and the supernatant removed. This solution was then introduced to the FT mass spectrometer.

[3] = test system: primary rat hepatocyte cells; test: FTMS of extracts of primary rat hepatocytes treated with lovastatin; assay type: cell-based; conditions: lovastatin 0.03 to 30 μM for 4 hours, normalized against untreated
Experimental: A male Sprague-Dawley rat was anesthetized by administration of sodium pentobarbitol by at 50 mg/kg body mass be intraperitoneal injection. In situ perfusion of the liver was performed as follows. The abdomen of the animal was opened, the portal vein was cannulated, and the liver perfused with WOSH solution (149 mM NaCl, 9.2 mM Na HEPES, 1.7 mM fructose, 0.5 mM EGTA, 10 U/ml heparin, pH 7.5) at a flow rate of 30 ml/min for 6 minutes. To digest the liver, DSC solution (6.7 mM KCl, 143 mM NaCl, 9.2 mM Na HEPES, 5 mM CaCl2-2H2O, 1.7 mM fructose, 0.2% BSA, 100 U/ml collagenase Type I, 80 U/ml, 160 BAEE/ml trypsin inhibitor, pH 7.5) was perfused through the liver at a flow rate of 30 ml/min for 6 minutes at a temperature of 37° C. After digestion, cells were dispersed in a solution of DMEM- (DMEM containing 2mM GlutMax-1, 0.2% BSA, 5% FBS, 12 nM insulin, 1.2 μM hydrocortisone) to stop the digestion process. The crude cell suspension was filtered through three layers of stainless steel mesh with pore sizes of 250, 106, and 75 um respectively. Filtered cells were centrifuged at 50×g for two minutes and the supernatant discarded. […]
All measurements were carried out on a Bruker APEX II FTMS equipped with a 7.0 Tesla magnet. […] The accurate mass data was then analyzed using Tcl/Tk routines, which serially search the mass spectra from each well for chemical composition of metabolic products. […]

Compound | HDL-cholesterol [1] | glucose utilization [1] | intensity of FTMS peak of molecular mass approximately 766.4 Daltons [2] | intensity of FTMS peak of molecular mass approximately 766.8 Daltons [2] | relative intensity of FTMS peak at molecular mass 85.02815 [3] | relative intensity of FTMS peak at molecular mass 85.64405 [3]
CC(C)(CO)CCCCOCCCCC(C)(C)CO [6-(6-hydroxy-5,5-dimethylhexyloxy)-2,2-dimethyl-hexan-1-ol] | increases | improves | reproducibly higher intensities | reproducibly higher intensities |  | 
CC[C@H](C)C(=O)O[C@H]1C[C@@H](C)C=C2C=C[C@H](C)[C@H](CC[C@@H]3C[C@@H](O)CC(=O)O3)[C@H]21 [lovastatin] |  |  |  |  | decreasing trend | increasing trend
